Source: patent US20250032449A1, “TREATMENT OF RHEUMATOID ARTHRITIS” (SYNACT PHARMA APS, priority 2021, published 2025)
Read-outs that look alike come from different tables or passages of the source.

Key:
[1] = system: aminotransferases (ALT or ALAT, AST); settings: known effect of MTX; cited from earlier work
mouse model of arthritis = settings: WO 2020/229297; cited from earlier work
peritonitis = settings: oral, cited from earlier work
[2] = system: newly diagnosed subjects with severe active RA (CDAI>22); test: Phase IIa placebo-controlled study in early RA patients starting MTX: CDAI; settings: for CDAI Baseline, group mean / CDAI Screening, group mean / CDAI Week 4, group mean / CDAI Week 2, group mean / CDAI Week 5, group mean / CDAI Difference / CDAI Difference in %: n = 31; for CDAI Baseline, group mean / CDAI Screening, group mean: before treatment; for CDAI Week 4, group mean: end of treatment; for CDAI Week 2, group mean: mid-treatment; for CDAI Week 5, group mean: one week follow-up after last dosage; for CDAI Difference / CDAI Difference in %: week 4 versus baseline
melanocytes = settings: cited from earlier work
[3] = system: alanine aminotransferase/alanine transaminase (ALAT)
Description: The study population will consist of newly diagnosed subjects with severe active RA (CDAI (Clinical disease activity score)>22) who are to start up-titration with methotrexate (MTX).
Sodium, potassium, chloride, calcium, glucose, creatinine, urea, albumin, unconjugated and total bilirubin, aspartate transaminase (AST), alanine transaminase (ALT), alkaline phosphatase (ALP), gamma-glutamyl transferase (GGT) and INR. The biochemistry blood samples will be taken at all visits. A serum β-HCG pregnancy test will be taken at screening.
Safety measures (AEs, SAEs, including laboratory abnormalities) will be registered during the whole study duration.
ALAT is commonly elevated following MTX treatment.

MC3R = settings: cited from earlier work
MC1R = settings: cited from earlier work
[4] = system: experimental inflammatory arthritis; settings: oral; cited from earlier work
macrophages = settings: cited from earlier work
[5] = system: mouse primary macrophages; settings: cited from earlier work
[6] = steady conditions, repeated dose Phase I
[7] = 50 mg AP1189 (acetate salt) group
[8] = 50 mg AP1189 (acetate salt) once daily plus MTX (10-25 mg) weekly
[9] = 50 mg AP1189 (acetate salt) once daily plus MTX weekly
[10] = 100 mg AP1189 (acetate salt) group
[11] = 100 mg AP1189 (acetate salt) once daily plus MTX (10-25 mg) weekly
[12] = 100 mg AP1189 (acetate salt) once daily plus MTX weekly
[13] = 100 mg dosage AP1189 (acetate salt), with MTX
[14] = 50 mg AP1189 once daily plus MTX weekly, 2 weeks, n 32
[15] = 50 mg AP1189 once daily plus MTX weekly, 4 weeks (end of treatment), n 33
[16] = 50 mg AP1189 once daily plus MTX weekly, 5 weeks (one week after final dosage), n 32
[17] = 100 mg AP1189 once daily plus MTX weekly, 2 weeks, n 34
[18] = 100 mg AP1189 once daily plus MTX weekly, 4 weeks (end of treatment), n 33
[19] = 100 mg AP1189 once daily plus MTX weekly, 5 weeks (one week after final dosage), n 35

## CN(Cc1cnc2nc(N)nc(N)c2n1)c1ccc(C(=O)N[C@@H](CCC(=O)O)C(=O)O)cc1 [MTX, methotrexate]
[1]
  Effect on aminotransferases (transaminases): cause an increase in aminotransferases

## (E)-N-trans-{3-[1-(2-nitrophenyl)-1H-pyrrol-2-yl]-allylidene}-aminoguanidinium acetate [AP1189]
Mouse model of arthritis
  Combined effect of AP1189 and methotrexate (MTX): synergistic effect
peritonitis
  Anti-inflammatory action in peritonitis: elicits anti-inflammatory actions
peritonitis; peritonitis
  Resolution phase: accelerated the resolution phase
[2]; [7]
  CDAI Baseline, group mean: 36.1
  CDAI Screening, group mean: 35.6
[2]; [8]
  CDAI Week 4, group mean: 24.2
  CDAI Week 2, group mean: 29.9
  CDAI Week 5, group mean: 22.9
[2]; [9]
  CDAI Difference: −11.9
  CDAI Difference in %: 33%
[2]; [10]
  CDAI Baseline, group mean: 39
  CDAI Screening, group mean: 38.9
[2]; [11]
  CDAI Week 4, group mean: 23.9
  CDAI Week 2, group mean: 28.9
  CDAI Week 5, group mean: 21.3
[2]; [12]
  CDAI Difference: −15.1
  CDAI Difference in %: 39%
[2]; [13]
  Efficacy in treating rheumatoid arthritis (CDAI): a reduction in CDAI
[2]; both tested dosages, 50 mg and 100 mg, with MTX
  Effect in reducing CDAI: significant effect of AP1189 in reducing CDAI
melanocytes
  Melanogenesis: no melanogenesis was induced
[3]; [14]
  ALAT 2 weeks (share of subjects with clinical significant abnormal value): 6.3%
  ALAT CSA (Clinical significant abnormal value), number: 2
[3]; [15]
  ALAT 4 weeks (share of subjects with clinical significant abnormal value): 6.1%
  ALAT CSA (Clinical significant abnormal value), number: 2
[3]; [16]
  ALAT 5 weeks (share of subjects with clinical significant abnormal value): 6.3%
  ALAT CSA (Clinical significant abnormal value), number: 2
[3]; 50 mg dosage AP1189 (acetate salt), with MTX
  Effect on MTX-associated elevation of transaminases: did not reduce MTX-associated elevation of transaminases
[3]; [17]
  ALAT 2 weeks (share of subjects with clinical significant abnormal value): 0.0%
  ALAT CSA (Clinical significant abnormal value), number: 0
[3]; [18]
  ALAT 4 weeks (share of subjects with clinical significant abnormal value): 0.0%
  ALAT CSA (Clinical significant abnormal value), number: 0
[3]; [19]
  ALAT 5 weeks (share of subjects with clinical significant abnormal value): 0.0%
  ALAT CSA (Clinical significant abnormal value), number: 0
[3]; [13]
  Effect on MTX-associated elevation of transaminases: completely abolish the MTX-associated elevation of transaminases
[3]; dosage of 50 mg, with MTX, at 2 weeks, 4 weeks (EoT) and 5 weeks (FoV)
  ALAT change: an increase in ALAT is observed
[3]; dosage of 100 mg AP1189, with MTX
  ALAT elevation: 0.0%
MC3R
  ERK1/2 phosphorylation: cause ERK1/2 phosphorylation
  canonical cAMP generation: does not induce canonical cAMP generation
MC1R
  ERK1/2 phosphorylation: cause ERK1/2 phosphorylation
  canonical cAMP generation: does not induce canonical cAMP generation
[4]
  Macroscopic and histological parameters of joint disruption: significant reduction
macrophages
  Cytokine release: reduce cytokine release
[5]
  Efferocytosis: proefferocytic effect
[6]; 50 mg once daily
  C Max (mean +/− SD, N = 9): 180 ± 38 ng/mL
  C Trough (Mean +/− SD, N = 9): 46 ± 14 ng/mL
[6]; 100 mg once daily
  C Max (mean +/− SD, N = 9): 427 ± 76 ng/mL
  C Trough (Mean +/− SD, N = 9): 100 ± 25 ng/mL
[6]; 200 mg once daily
  C Max (mean +/− SD, N = 9): 893 ± 198 ng/mL
  C Trough (Mean +/− SD, N = 9): 186 ± 45 ng/mL
